Assay results: PMC8763920, “Unprotected peptide macrocyclization and stapling via a fluorine-thiol displacement reaction” (Nature Communications, 2022)
*1 amine or outer side, *2 acyl side, *3 side chain or, on linkers, in order; H or OH if unused. Where a SMILES comes first, the peptide text is derived from it. Bridges are numbered along the chain shown (N, C = ends). [ ]: non-standard residue; d: D form. Benzene(1,3-(CH2SCH2CO)2) = O=C(CSCc1cccc(CSCC(=O)[*:2])c1)[*:1]; dDap = NC[C@@H](N)C(=O)O; Dap = NC[C@H](N)C(=O)O

Columns and labels:
circular dichroism = conditions: water; pH ns; 25 °C; 70 uM
[1] = tested on: β-catenin mediated transcription; assay: TOPFlash luciferase reporter assay; type: cell-based; conditions: DLD-1 cells, 15 μM peptide, 24 h
Protocol: For evaluation of Axin peptide analogues, DLD-1 cells were cultured in 96-well flat bottom plates up to 70–80% confluency and were transfected with 200 ng M50 TOPFlash plasmid (a gift from Professor Raymond Habas, Temple Biology) and 50 ng pRL-TK plasmid (Promega). 12 h after transfection, cells were treated with DMSO vehicle or 15 μM of Axin peptide analogues for another 24 h. Luciferase activity was measured using the Dual-Glo luciferase assay kit (Promega) on a Biotek Synergy H1 plate reader using the Gen5 software. Data were processed as firefly: Renilla luciferase ratio for each control or treatment group, and were further normalized against the vehicle control group (100%) as the Relative Activities.

DLD-1 cells [2] = assay: Time-dependent cytotoxicity/growth inhibition of Axin peptide analogues; type: cell-based; conditions: 0, 5, 10, 15 µM; after 48 h of incubation; CellTiter Glo
Protocol: (§1) For growth inhibition by Axin peptides, DLD-1 cells were cultured and maintained as mentioned before. Right before the assay, cells were resuspended in fresh RPMI media supplemented with 10% FBS, 100 IU/mL penicillin, and 100 µg/mL streptomycin, and plated onto 96-well white flat-bottom plates at 1000 cells per well (90 µL media/well). After overnight incubation, peptide samples were serially diluted as 10× stock in PBS buffer (10% DMSO), and were added to the plated cells at 10 µL stock solution/well in triplicate to make final treatment concentrations of 0, 0.0625, 0.125, 0.25, 0.5, 1, 2, 4, 8, 16 µM. […] The samples on the plates were incubated at 37 °C, 5% CO2 for 5 days, and the cell viability was evaluated by CellTiter Glo (Promega). The luminescence signals were recorded by the H1 synergy plate reader (Biotek) using the Gen5 software, and were normalized against the control groups (100%) for which cells were only treated with the vehicle (PBS/1% DMSO). Control HEK293 cells were cultured in DMEM media supplemented with 10% FBS, 1% penicillin/streptomycin at 37 °C, 5% CO2, then incubated with peptide samples and measured for viability in the same manner as mentioned above. […] After 24 h of incubation, the cell viabilities were measured and normalized against the vehicle control groups the same as mentioned above.

DLD-1 cells [3] = assay: Cell viability assay for imaging studies, Axin analogues; type: cell-based; conditions: 10 µM, 12 h incubation, CellTiter-Glo
Protocol: For Jurkat cells, after imaging studies with SAHBA analogues (5 µM, 4 h of incubation), viabilities were measured by mixing with the CellTiter-Glo reagent and the chemiluminescence signals were recorded and processed the same as metioned above. Similarly, confocal imaging of DLD-1 cells for the penetration pathway studies were followed by viability measurements. Cells treated with vehicle groups were also analysed and counted as the 100% control.

HEK293 cells = assay: 5-day growth of HEK293 control cells; type: cell-based; conditions: 5 days, CellTiter Glo, up to 16 µM
Protocol: as §1

DLD-1 cells [4] = assay: 5-day growth inhibition of DLD-1 cancer cells; type: cell-based; conditions: 5 days, CellTiter Glo, 1000 cells per well, n = 3; read-out: EC50, inhibition of DLD-1 cell growth
Protocol: For growth inhibition by Axin peptides, DLD-1 cells were cultured and maintained as mentioned before. Right before the assay, cells were resuspended in fresh RPMI media supplemented with 10% FBS, 100 IU/mL penicillin, and 100 µg/mL streptomycin, and plated onto 96-well white flat-bottom plates at 1000 cells per well (90 µL media/well). After overnight incubation, peptide samples were serially diluted as 10× stock in PBS buffer (10% DMSO), and were added to the plated cells at 10 µL stock solution/well in triplicate to make final treatment concentrations of 0, 0.0625, 0.125, 0.25, 0.5, 1, 2, 4, 8, 16 µM. The wells on the edges of plates were filled with PBS buffer to avoid unwanted evaporation of samples. The samples on the plates were incubated at 37 °C, 5% CO2 for 5 days, and the cell viability was evaluated by CellTiter Glo (Promega). The luminescence signals were recorded by the H1 synergy plate reader (Biotek) using the Gen5 software, and were normalized against the control groups (100%) for which cells were only treated with the vehicle (PBS/1% DMSO). Control HEK293 cells were cultured in DMEM media supplemented with 10% FBS, 1% penicillin/streptomycin at 37 °C, 5% CO2, then incubated with peptide samples and measured for viability in the same manner as mentioned above. For Axin peptide analogues’ time-dependent cytotoxicity, peptide analogues were mixed with cells (1000 cells per well) at a final concentration of 0, 5, 10, and 15 µM. The cell viabilities were meaured via CellTiter Glo after incubation of 1 day, 2 days, and 4 days, respectively. […] After 24 h of incubation, the cell viabilities were measured and normalized against the vehicle control groups the same as mentioned above.

CC[C@H](C)[C@@H]1NC(=O)[C@@H](NC(=O)[C@@H](N)CCC(=O)O)CNC(=O)CSCc2cccc(c2)CSCC(=O)NC[C@@H](C(=O)N[C@@H](Cc2c[nH]cn2)C(=O)O)NC(=O)[C@H](CC(=O)O)NC(=O)[C@H](CC(C)C)NC1=O (H-E[Dap]ILD[Dap]H-OH; linker 2-6 via Benzene(1,3-(CH2SCH2CO)2))
helicity (circular dichroism): 41%

CC[C@H](C)[C@@H]1NC(=O)[C@@H](NC(=O)[C@@H](N)CCC(=O)O)CNC(=O)CSCc2cccc(c2)CSCC(=O)NC[C@H](C(=O)N[C@@H](Cc2c[nH]cn2)C(=O)O)NC(=O)[C@H](CC(=O)O)NC(=O)[C@H](CC(C)C)NC1=O (H-E[Dap]ILD[dDap]H-OH; linker 2-6 via Benzene(1,3-(CH2SCH2CO)2))
helicity (circular dichroism): 39%

CC[C@H](C)[C@@H]1NC(=O)[C@H](NC(=O)[C@@H](N)CCC(=O)O)CNC(=O)CSCc2cccc(c2)CSCC(=O)NC[C@@H](C(=O)N[C@@H](Cc2c[nH]cn2)C(=O)O)NC(=O)[C@H](CC(=O)O)NC(=O)[C@H](CC(C)C)NC1=O (H-E[dDap]ILD[Dap]H-OH; linker 2-6 via Benzene(1,3-(CH2SCH2CO)2))
helicity (circular dichroism): 13%

CC[C@H](C)[C@@H]1NC(=O)[C@@H](NC(=O)[C@H](CCC(N)=O)NC(=O)[C@@H]2CCCN2C(=O)[C@H](Cc2c[nH]c3ccccc23)NC(=O)[C@H](CCCNC(=N)N)NC(=O)COCCOCCNC(=S)Nc2ccc3c(c2)C(=O)OC32c3ccc(O)cc3Oc3cc(O)ccc32)CNC(=O)CSCc2cccc(c2)CSCC(=O)NC[C@@H](C(=O)N[C@@H](Cc2c[nH]cn2)C(=O)N[C@H](C(=O)N[C@@H](CCCNC(=N)N)C(=O)N[C@@H](CCCNC(=N)N)C(=O)N[C@H](C(=O)N[C@@H](Cc2c[nH]c3ccccc23)C(=O)N[C@@H](CCCNC(=N)N)C(N)=O)C(C)C)C(C)C)NC(=O)[C@H](CC(=O)O)NC(=O)[C@H](CC(C)C)NC1=O [compound 65]
inhibition of β-catenin mediated transcription (TOPFlash) [1]: strong inhibition | effects on DLD-1 cells over a time course of 24–96 h (DLD-1 cells [2]): significant effects | effect on viability of DLD-1 cells (DLD-1 cells [3]): did not affect the viability | effect on growth of HEK293 control cells (HEK293 cells): little effects | EC50 (DLD-1 cells [4]): 2300 ± 400 nM
